Source: ChEMBL document CHEMBL5154925, “Design and Optimization of Thienopyrimidine Derivatives as Potent and Selective PI3Kδ Inhibitors for the Treatment of B-Cell Malignancies” (J Med Chem, 2022)
In brackets after ≈: the same amount, converted by molar mass. Activity calls are given as the source filed them. The calls are words filed in the database; no cut-off is given here.

Experiments:
[1] = Apparent volume of distribution in ICR mouse at 3 mg/kg, iv measured upto 24 hrs by LC-MS/MS analysis; type: ADME, organism-based; conditions: in vivo, read-out: Vz
[2] = Oral bioavailability in ICR mouse at 30 mg/kg measured upto 24 hrs by LC-MS/MS analysis; type: ADME, organism-based; conditions: in vivo
[3] = test system: Pfeiffer; experiment: Induction of apoptosis in human Pfeiffer cells assessed as necrotic cells at 10 uM incubated for 48 hrs by annexin V-FITC staining based flow cytometry (reference value: 6.62 %); type: functional
[4] = test system: SU-DHL-6; experiment: Inhibition of P13K signaling pathway in human SU-DHL-6 cells assessed as reduction in […] incubated for 4 hrs by Western blot analysis; type: cell-based; conditions: dose 2-50 µM, DDE = dose-dependent effect
[5] = test system: Pfeiffer; experiment: Induction of apoptosis in human Pfeiffer cells assessed as early apoptotic cells at 2 uM incubated for 48 hrs by annexin V-FITC staining based flow cytometry (reference value: 4.16 %); type: functional
[6] = Tmax in ICR mouse at 3 mg/kg, iv measured upto 24 hrs by LC-MS/MS analysis; type: ADME, organism-based; conditions: in vivo
[7] = target: Phosphatidylinositol 4,5-bisphosphate 3-kinase catalytic subunit gamma isoform (Homo sapiens, UniProt P48736); experiment: Inhibition of wild type partial length human PIK3CG (S144 to A1102 residues) expressed in mammalian cells assessed as residual activity at 10 uM relative to control; type: cell-based
[8] = test system: Pfeiffer; experiment: Induction of apoptosis in human Pfeiffer cells assessed as viable […] cells at 2 uM incubated for 48 hrs by annexin V-FITC staining based flow cytometry (reference value: 81.14 %); type: functional
[9] = test system: Pfeiffer; experiment: Induction of apoptosis in human Pfeiffer cells assessed as necrotic cells at 50 uM incubated for 48 hrs by annexin V-FITC staining based flow cytometry (reference value: 6.62 %); type: functional
[10] = test system: Pfeiffer; experiment: Induction of apoptosis in human Pfeiffer cells assessed as viable […] cells at 10 uM incubated for 48 hrs by annexin V-FITC staining based flow cytometry (reference value: 81.14 %); type: functional
[11] = AUC (0 to infinity) in ICR mouse at 3 mg/kg, iv measured upto 24 hrs by LC-MS/MS analysis; type: ADME, organism-based; design: time < 24 hrs, dose 3 mg/kg, route iv; conditions: in vivo
[12] = Plasma protein binding in mouse; type: ADME, cell-free; conditions: read-out: PPB (converted)
[13] = test system: JeKo-1; experiment: Antiproliferative activity against human JeKo-1 cells assessed as cell growth inhibition incubated for 96 hrs by cell titer glo assay; type: functional, cell-based; conditions: JeKo-1, 96 h
[14] = test system: Pfeiffer; experiment: Induction of apoptosis in human Pfeiffer cells assessed as early apoptotic cells at 50 uM incubated for 48 hrs by annexin V-FITC staining based flow cytometry (reference value: 4.16 %); type: functional
[15] = test system: Mus musculus; experiment: In vivo inhibition of PI3K signalling in human Pfeiffer cells xenografted in nude mouse assessed as reduction in Akt phosphorylation at Ser473 at 5 mg/kg, ip by Western blotting analysis; type: functional, organism-based
[16] = test system: Mus musculus; experiment: In vivo inhibition of PI3K signalling in human Pfeiffer cells xenografted in nude mouse assessed as reduction in Akt phosphorylation at Ser473 at 75 mg/kg, po by Western blotting analysis; type: functional, organism-based
[17] = test system: Pfeiffer; experiment: Induction of apoptosis in human Pfeiffer cells assessed as necrotic cells at 2 uM incubated for 48 hrs by annexin V-FITC staining based flow cytometry (reference value: 6.62 %); type: functional
[18] = target: Serine/threonine-protein kinase mTOR (Homo sapiens, UniProt P42345); experiment: Inhibition of mTOR (unknown origin)
[19] = Toxicity in nude mouse xenografted with human Pfeiffer cells assessed as effect on body weight at 5 mg/kg, ip BID for 21 days and measured twice weekly; type: organism-based; conditions: in vivo, 504 h, time 21 day
[20] = test system: Pfeiffer; experiment: Induction of apoptosis in human Pfeiffer cells assessed as late apoptotic cells at 50 uM incubated for 48 hrs by annexin V-FITC staining based flow cytometry (reference value: 7.87 %); type: functional
[21] = Toxicity in nude mouse xenografted with human Pfeiffer cells assessed as effect on body weight at 75 mg/kg, po BID for 21 days and measured twice weekly; type: organism-based; conditions: in vivo, 504 h, time 21 day
[22] = test system: SU-DHL-6; experiment: Induction of apoptosis in human SU-DHL-6 cells assessed as apoptotic rate at 50 uM incubated for 48 hrs by annexin V-FITC staining based flow cytometry; type: functional
[23] = target: Ribosomal protein S6 kinase alpha-3 (Homo sapiens) (UniProt P51812); experiment: Inhibition of wild type […] human RSK2 (M1 to D394 residues) expressed in mammalian expression system assessed as residual activity at 10 uM relative to control
[24] = test system: Pfeiffer; experiment: Inhibition of P13K signaling pathway in human Pfeiffer cells assessed as reduction in […] incubated for 4 hrs by Western blot analysis; type: cell-based; conditions: dose 2-50 µM, DDE = dose-dependent effect
[25] = target: Phosphatidylinositol 4,5-bisphosphate 3-kinase catalytic subunit gamma isoform (Mus musculus, UniProt Q9JHG7); experiment: Inhibition of PI3Kgamma in C5a stimulated mouse RAW264.7 cells incubated for 10 mins by AlphaLisa assay; type: cell-based
[26] = test system: Pfeiffer; experiment: Induction of apoptosis in human Pfeiffer cells assessed as late apoptotic cells at 10 uM incubated for 48 hrs by annexin V-FITC staining based flow cytometry (reference value: 7.87 %); type: functional
[27] = Solubility of the compound in FaSSIF; type: physicochemical
[28] = Clearance in ICR mouse at 3 mg/kg, iv measured upto 24 hrs by LC-MS/MS analysis; type: ADME, organism-based; conditions: in vivo
[29] = test system: Pfeiffer; experiment: Induction of apoptosis in human Pfeiffer cells assessed as viable […] cells at 50 uM incubated for 48 hrs by annexin V-FITC staining based flow cytometry (reference value: 81.14 %); type: functional
[30] = AUC (0 to infinity) in ICR mouse at 30 mg/kg, po measured upto 24 hrs by LC-MS/MS analysis; type: ADME, organism-based; design: dose 30 mg/kg, time < 24 hrs, route po; conditions: in vivo
[31] = test system: Pfeiffer; experiment: Antitumor activity against human Pfeiffer cells xenografted in nude mouse assessed as tumor growth inhibition at 5 mg/kg, ip BID for 21 days and measured twice weekly; type: functional; conditions: 504 h, time 21 day, read-out: TGI
[32] = test system: SUD4; experiment: Antiproliferative activity against human SU-DHL-4 cells assessed as cell growth inhibition incubated for 96 hrs by cell titer glo assay; type: functional, cell-based; conditions: SU-DHL-4, 96 h
[33] = Solubility of the compound in PBS; type: physicochemical
[34] = Tmax in ICR mouse at 30 mg/kg, po measured upto 24 hrs by LC-MS/MS analysis; type: ADME, organism-based; conditions: in vivo
[35] = test system: B-cell; experiment: Inhibition of PI3Kdelta dependent mouse B-cell activation assessed as reduction in ratio of CD86 and B220 level at 0.001 to 0.1 uM stimulated with IgM for 1 hr prior to compound addition and measured after 24 hrs by flow cytometry analysis; type: functional, cell-based; conditions: dose 0.001-0.1 µM, time 25.0 hrs
[36] = Half life in ICR mouse at 30 mg/kg, po measured upto 24 hrs by LC-MS/MS analysis; type: ADME, organism-based; conditions: in vivo
[37] = test system: Pfeiffer; experiment: Antitumor activity against human Pfeiffer cells xenografted in nude mouse assessed as tumor growth inhibition at 75 mg/kg, po BID for 21 days and measured twice weekly; type: functional; conditions: 504 h, time 21 day, read-out: TGI
[38] = AUC (0 to t) in ICR mouse at 3 mg/kg, iv measured upto 24 hrs by LC-MS/MS analysis; type: ADME, organism-based; design: time < 24 hrs, dose 3 mg/kg, route iv; conditions: in vivo

Sequence of Phosphatidylinositol 4,5-bisphosphate 3-kinase catalytic subunit gamma isoform (Mus musculus, UniProt Q9JHG7) (Q9JHG7 whole entry, canonical isoform): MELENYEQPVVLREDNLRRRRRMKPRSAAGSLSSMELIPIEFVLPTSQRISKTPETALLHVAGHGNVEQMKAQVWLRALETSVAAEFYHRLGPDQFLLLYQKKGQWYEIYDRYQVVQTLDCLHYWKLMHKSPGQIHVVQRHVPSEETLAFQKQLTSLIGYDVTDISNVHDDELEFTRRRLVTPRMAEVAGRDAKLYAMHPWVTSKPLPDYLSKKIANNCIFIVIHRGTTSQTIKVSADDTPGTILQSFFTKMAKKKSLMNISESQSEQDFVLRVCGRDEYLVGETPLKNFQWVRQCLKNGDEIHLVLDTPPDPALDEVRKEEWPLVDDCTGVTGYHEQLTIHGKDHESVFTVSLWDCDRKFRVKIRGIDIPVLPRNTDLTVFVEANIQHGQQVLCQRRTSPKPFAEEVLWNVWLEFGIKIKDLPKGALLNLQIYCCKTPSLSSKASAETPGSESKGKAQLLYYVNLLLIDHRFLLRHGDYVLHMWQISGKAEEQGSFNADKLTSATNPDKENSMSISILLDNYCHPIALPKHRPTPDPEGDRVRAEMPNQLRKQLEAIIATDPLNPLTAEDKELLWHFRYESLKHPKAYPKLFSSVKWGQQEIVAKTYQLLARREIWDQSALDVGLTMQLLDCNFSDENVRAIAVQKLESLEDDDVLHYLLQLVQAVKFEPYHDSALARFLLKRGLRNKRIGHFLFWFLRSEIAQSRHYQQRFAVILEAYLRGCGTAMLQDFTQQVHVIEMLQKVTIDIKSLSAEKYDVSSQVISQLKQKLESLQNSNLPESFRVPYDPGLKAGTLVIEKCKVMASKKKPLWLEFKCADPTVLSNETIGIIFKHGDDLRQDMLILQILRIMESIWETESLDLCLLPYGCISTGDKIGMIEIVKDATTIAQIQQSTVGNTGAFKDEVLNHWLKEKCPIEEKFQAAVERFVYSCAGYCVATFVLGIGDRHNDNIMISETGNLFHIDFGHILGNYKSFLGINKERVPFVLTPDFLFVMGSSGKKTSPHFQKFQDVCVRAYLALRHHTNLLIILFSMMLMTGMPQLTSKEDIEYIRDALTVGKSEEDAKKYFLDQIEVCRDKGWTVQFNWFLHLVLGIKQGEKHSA
Sequence of Ribosomal protein S6 kinase alpha-3 (Homo sapiens) (P51812 whole entry, the tested form may be a part): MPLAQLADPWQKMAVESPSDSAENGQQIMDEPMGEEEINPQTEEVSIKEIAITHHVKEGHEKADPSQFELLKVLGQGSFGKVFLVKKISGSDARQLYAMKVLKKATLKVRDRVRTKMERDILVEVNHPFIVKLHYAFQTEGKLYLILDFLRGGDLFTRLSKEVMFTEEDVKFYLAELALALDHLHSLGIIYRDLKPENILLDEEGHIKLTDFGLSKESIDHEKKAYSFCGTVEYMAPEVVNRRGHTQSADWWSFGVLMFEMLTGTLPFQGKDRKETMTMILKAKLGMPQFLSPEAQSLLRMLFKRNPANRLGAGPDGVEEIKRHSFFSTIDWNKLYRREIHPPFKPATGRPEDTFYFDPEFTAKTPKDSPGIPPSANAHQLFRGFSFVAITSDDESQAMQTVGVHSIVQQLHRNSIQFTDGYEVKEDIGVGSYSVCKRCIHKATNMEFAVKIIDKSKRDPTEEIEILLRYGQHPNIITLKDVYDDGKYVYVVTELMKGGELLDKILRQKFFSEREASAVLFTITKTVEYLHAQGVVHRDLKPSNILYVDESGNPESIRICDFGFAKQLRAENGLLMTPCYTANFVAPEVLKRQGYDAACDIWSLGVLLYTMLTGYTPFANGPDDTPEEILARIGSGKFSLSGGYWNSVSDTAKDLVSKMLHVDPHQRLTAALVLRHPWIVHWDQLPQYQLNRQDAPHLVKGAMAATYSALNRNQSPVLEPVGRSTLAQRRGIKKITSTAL
Sequence of Phosphatidylinositol 4,5-bisphosphate 3-kinase catalytic subunit gamma isoform (Homo sapiens, UniProt P48736) (P48736 whole entry, looked up, the tested form may be a part, canonical isoform): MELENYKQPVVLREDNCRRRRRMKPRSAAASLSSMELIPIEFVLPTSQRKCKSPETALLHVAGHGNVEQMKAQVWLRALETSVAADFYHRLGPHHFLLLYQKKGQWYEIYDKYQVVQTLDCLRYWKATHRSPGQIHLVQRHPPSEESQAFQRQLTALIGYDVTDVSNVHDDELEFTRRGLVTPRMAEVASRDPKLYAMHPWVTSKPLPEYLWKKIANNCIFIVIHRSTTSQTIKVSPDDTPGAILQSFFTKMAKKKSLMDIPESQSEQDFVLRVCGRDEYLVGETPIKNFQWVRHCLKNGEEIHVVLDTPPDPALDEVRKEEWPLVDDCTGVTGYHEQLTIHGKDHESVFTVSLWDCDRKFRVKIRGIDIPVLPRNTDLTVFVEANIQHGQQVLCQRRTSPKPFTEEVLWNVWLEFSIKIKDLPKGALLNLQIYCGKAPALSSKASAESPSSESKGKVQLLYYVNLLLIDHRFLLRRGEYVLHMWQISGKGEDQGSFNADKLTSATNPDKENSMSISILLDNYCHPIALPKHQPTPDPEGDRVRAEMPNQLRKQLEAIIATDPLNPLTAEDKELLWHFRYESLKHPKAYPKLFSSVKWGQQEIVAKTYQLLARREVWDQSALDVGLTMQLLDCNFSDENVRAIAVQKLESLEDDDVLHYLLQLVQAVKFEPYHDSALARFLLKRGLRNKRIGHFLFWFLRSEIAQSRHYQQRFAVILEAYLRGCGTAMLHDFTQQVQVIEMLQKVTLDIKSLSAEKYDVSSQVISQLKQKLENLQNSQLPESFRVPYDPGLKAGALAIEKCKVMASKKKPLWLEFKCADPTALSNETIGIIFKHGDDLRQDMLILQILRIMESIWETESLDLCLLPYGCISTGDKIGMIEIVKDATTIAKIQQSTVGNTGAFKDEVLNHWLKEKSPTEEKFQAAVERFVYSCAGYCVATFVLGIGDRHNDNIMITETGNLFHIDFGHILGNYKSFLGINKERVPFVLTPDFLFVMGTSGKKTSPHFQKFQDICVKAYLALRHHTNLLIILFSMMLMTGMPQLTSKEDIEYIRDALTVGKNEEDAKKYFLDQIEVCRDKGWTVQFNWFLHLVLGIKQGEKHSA

Vd [1]: 5.49 L/kg
bioavailability [2]: 7.49%
Tmax [6]: 4.8 min
Activity [7]: 9.9%
AUC(0-inf) [11]: 1370 ng·h/mL
fraction unbound [12]: 0.029
IC50 [18]: > 10 µM
Activity [23]: 23%
IC50 [25]: 8.06 µM
solubility [27]: 102 µM (≈ 42.1 µg/mL)
clearance [28]: 36.5 mL/min/kg
AUC(0-inf) [30]: 1030 ng·h/mL
solubility [33]: 44.5 µM (≈ 18.4 µg/mL)
Tmax [34]: 90 min
half-life [36]: 53.4 min
AUC(0-t) at 24 h [38]: 1370 ng·h/mL
Structure (SMILES): CCC(=O)N1CC[C@H](Nc2ncnc3sc(-c4cnc(OC)c(OC)c4)cc23)C1
Activity [3]: 6.72%
inhibition [4]: Dde
Activity [5]: 6.03%
Activity [8]: 76.43%
Activity [9]: 7.18%
Activity [10]: 65.34%
IC50 [13]: 14.7 µM
Activity [14]: 15.74%
inhibition [15]: Active
inhibition [16]: Active
Activity [17]: 5.01%
Activity [19]: 10%
Activity [20]: 43.33%
Activity [21]: 10%
Activity [22]: >50%
inhibition [24]: Dde
Activity [26]: 22.9%
Activity [29]: 33.75%
inhibition in vivo at 5 mg/kg [31]: 69%
IC50 [32]: 3.75 µM
inhibition [35]: Active
inhibition in vivo at 75 mg/kg [37]: 65.5%
